Laboratory results: PubChem BioAssay (NCI)
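Compound exposure: 48 hours, 5 concentrations, 96-well plates. Here, GI50 denotes the concentration required for 50% inhibition of growth. TGI marks complete inhibition of growth.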

Tests used:
Experiment in all cases: NCI tumour cell line growth inhibition, 48 h
[1] = system: DMS 114 small cell lung
[2] = system: SNB-78 CNS
[3] = system: HOP-18 NSCLC
[4] = system: RXF-631 renal
[5] = system: LXFL 529 NSCLC
[6] = system: DLD-1 colon
[7] = system: MDA-N
[8] = system: BT-549 breast
[9] = system: MCF7 breast

| SMILES | TGI [1] | TGI [2] | TGI [3] | TGI [4] | TGI [5] | TGI [6] | GI50 [1] | TGI [7] | TGI [8] | TGI [9] |
| --- | --- | --- | --- | --- | --- | --- | --- | --- | --- | --- |
| N#CC(C(=O)/C(=N/N)C(C#N)c1ccc(Cl)cc1)c1ccc(Cl)cc1 (stereo unspecified) | > 100 µM | > 100 µM | > 100 µM | > 100 µM | > 100 µM | > 100 µM | – | – | – | – |
| Cc1ccccc1-c1c(N)nc(NC#N)nc1C(=O)Nc1ccccc1 | > 100 µM | > 100 µM | > 100 µM | > 100 µM | > 100 µM | > 100 µM | – | – | – | – |
| COC(=O)C1CC(C(=O)OC)c2nc3cc(C)ccc3nc21 (stereo unspecified) | > 100 µM | > 100 µM | > 100 µM | > 100 µM | > 100 µM | > 100 µM | – | – | – | – |
| Cc1cccc(C(C)(C)C)c1NC(=O)C(=O)C(C(=O)/C=C\c1ccccc1)C1OC(=O)c2ccccc21 (stereo unspecified) | > 100 µM | > 100 µM | > 100 µM | > 100 µM | > 100 µM | > 100 µM | – | – | – | – |
| COc1ccc2[nH]c(-c3ccccn3)cc(=O)c2c1 | 71.4 µM | > 100 µM | > 100 µM | > 100 µM | > 100 µM | > 100 µM | 22.6 µM | – | – | – |
| COC(=O)C(CCS(=O)(=O)CC(=O)C(=O)Nc1cccc(C(C)=O)c1)C(=O)OC | > 55.2 µM | > 100 µM | > 100 µM | > 100 µM | > 100 µM | > 100 µM | – | – | – | – |
| O=C(/C=C/c1ccc(OCC(=O)N2CCN(c3ccccc3)CC2)cc1)c1ccc(Cl)cc1 | > 100 µM | 82.8 µM | > 100 µM | > 100 µM | > 100 µM | > 100 µM | – | > 100 µM | > 85.6 µM | > 100 µM |
